Source: patent US10859504B2, “Degradable cationic surfactants and use thereof in enhancing chemiluminescence” (Siemens Healthcare Diagnostics Inc., priority 2013, dated 2020)
Blank lines part the entries; values can stand above or below the compound they belong to.

What was measured:
[1] = Chemiluminescence measurement of anti-TSH antibody conjugate of acridinium ester 3b with cationic surfactants; details: for Observed enhancement (fold) of chemiluminescence: no surfactant control = 1; for Observed acceleration of emission kinetics (time to >90% emission): without surfactant 49.5 seconds
Description: (§1) To study the impact of degradable cationic surfactants on acridinium ester chemiluminescence, two exemplary cationic surfactants containing cleavable linkages (FIG. 2A) were selected. The synthetic schemes for the two surfactants are illustrated in FIGS. 3-4 and described in Examples 1 and 2 above. Both surfactants were dissolved in Reagent 1 (0.1 M nitric acid containing 0.5% hydrogen peroxide) at five times their reported CMCs in water. CTAC dissolved in Reagent 2 (0.25 M NaOH) was used as the control surfactant. The two carbonate and amide cationic surfactants (FIG. 2A) were dissolved in Reagent 1 to preserve stability, especially during long term storage (Stjerndahl and Holmberg, J. Colloid and Interface Sci., 2005, 291, 570-576). Three acridinium esters (FIG. 2B, compounds 3a, 3b and 3c) were used to make protein conjugates of an anti-TSH antibody (TS=thyroid stimulating hormone) as described in the literature (Natrajan et al, Org. Biomol. Chem., 2011, 9, 5092-5103; Natrajan et al, Org. Biomol. Chem., 2012, 10, 3432-3447). The conjugates contained approximately 5 labels. The conjugates were stored at 4° C. in buffer and chemiluminescence from each conjugate was measured in the absence of surfactant and in the presence of CTAC as well as cationic surfactants 1 and 2 (Tables 1-3, FIGS. 5-7). The ability of each surfactant to (a) increase total light output and (b) accelerate emission kinetics was evaluated over a period of 80 days.
(§2) Chemiluminescence of anti-TSH antibody conjugates of acridinium esters 3a, 3b and 3c (FIG. 2B) was measured on an Autolumat LB953 Plus luininometer from Behold Technologies. The conjugates, ˜2 mg/mL containing approximately five labels, were serially diluted 10^5-fold for chemiluminescence measurements in an aqueous buffer of 10 mM disodium hydrogen phosphate, 0.15 M NaCl and 8 mM sodium azide and 0.015 mM bovine serum albumin (BSA), pH 8.0. A 0.010 mL volume of each diluted acridinium ester sample was dispensed into the bottom of a cuvette. Cuvettes were placed into the primed LB953 and the chemiluminescence reaction was initiated with the sequential addition of 0.3 mL of Reagent 1, a solution of 0.5% hydrogen peroxide in 0.1 M nitric acid followed by the addition of 0.3 mL of Reagent 2, a solution of 0.25 M sodium hydroxide. For measurements in the presence of CTAC, the surfactant (7 mM) was included in Reagent 2. For measurements in the presence of the cationic amide surfactant 1 or the cationic carbonate surfactant 2, each surfactant was dissolved in Reagent 1 at 3.2 mM (surfactant 1) and 2.15 mM (surfactant 2). Each chemiluminescence flash curve was measured in 240 intervals of 0.5 second (120 seconds total time). Each chemiluminescence reaction was carried out a minimum of three times, averaged and converted to a percentage of the chemiluminescence accumulated up to each time interval. The output from the luminometer instrument was expressed as R.L.U.s (Relative Light Units).

[2] = Stability of surfactants in Reagent 1 (0.5% peroxide in 0.1 M nitric acid) on storage; assay type: physicochemical; details: for stability in Reagent 1: 0.5% peroxide in 0.1 M nitric acid, 80 days at room temperature, little loss in ability to enhance chemiluminescence; for ability to accelerate light emission after storage: 80 days of storage at room temperature
Description: as §1
For example, for all three acridinium ester conjugates, in comparison to the no surfactant control which was assigned a relative light yield of one, total light yield was increased approximately 2.5-4-fold for 3a, 3-5-fold for 3b and 3-4.5-fold for 3c (Tables 1a, 2a and 3a) for CTAC as well as surfactants 1 and 2. […] Even at day 80, the fold of increased light emission using surfactant 2 remains to be about 80% (2.8/3.5) of CTAC. Similarly, the fold of increased light emission using Surfactant 1 is about 89% (3.1/3.5) on day 1, and 74% (2.6/3.5) on day 80 compared to CTAC.
Furthermore, both surfactants 1 and 2 were very effective in accelerating light emission from the acridinium ester antibody conjugates (Tables 1b, 2b and 3b, FIGS. 5-7). […] In the presence of CTAC or the two cationic surfactants 1 and 2, emission times were compressed to <3 seconds for the conjugates of all three acridinium ester labels.

[3] = Chemiluminescence measurement of anti-TSH antibody conjugate of acridinium ester 3c with cationic surfactants; details: for Observed enhancement (fold) of chemiluminescence: no surfactant control = 1; for Observed acceleration of emission kinetics (time to >90% emission): without surfactant 62.5 seconds
Description: as §1, §2

[4] = Chemiluminescence measurement of anti-TSH antibody conjugate of acridinium ester 3a with cationic surfactants; details: for Observed enhancement (fold) of chemiluminescence: no surfactant control = 1; for Observed acceleration of emission kinetics (time to >90% emission): without surfactant 57.5 seconds; for accelerated emission kinetics: as shown in Table 1b, from 57.5 seconds without surfactant
Description: as §1, §2

[5] = cited from earlier work

stability in Reagent 1 [2]: quite stable
ability to accelerate light emission after storage [2]: did not diminish
SMILES: CCCCCCCCCCCCOC(=O)OCCCC[N+](C)(C)C [surfactant 2]
Observed enhancement (fold) of chemiluminescence ([1]; Day 1): 5.0 fold
Observed acceleration of emission kinetics (time to >90% emission) ([1]; Day 1): 0.5 s
Observed enhancement (fold) of chemiluminescence ([1]; Day 10): 5.2 fold
Observed acceleration of emission kinetics (time to >90% emission) ([1]; Day 10): 0.5 s
Observed enhancement (fold) of chemiluminescence ([1]; Day 20): 5.2 fold
Observed acceleration of emission kinetics (time to >90% emission) ([1]; Day 20): 0.5 s
Observed enhancement (fold) of chemiluminescence ([1]; Day 40): 3.9 fold
Observed acceleration of emission kinetics (time to >90% emission) ([1]; Day 40): 0.5 s
Observed enhancement (fold) of chemiluminescence ([1]; Day 80): 4.1 fold
Observed acceleration of emission kinetics (time to >90% emission) ([1]; Day 80): 0.5 s
Observed enhancement (fold) of chemiluminescence ([3]; Day 1): 4.2 fold
Observed acceleration of emission kinetics (time to >90% emission) ([3]; Day 1): 1.0 s
Observed enhancement (fold) of chemiluminescence ([3]; Day 10): 4.2 fold
Observed acceleration of emission kinetics (time to >90% emission) ([3]; Day 10): 1.0 s
Observed enhancement (fold) of chemiluminescence ([3]; Day 20): 4.4 fold
Observed acceleration of emission kinetics (time to >90% emission) ([3]; Day 20): 1.5 s
Observed enhancement (fold) of chemiluminescence ([3]; Day 40): 3.7 fold
Observed acceleration of emission kinetics (time to >90% emission) ([3]; Day 40): 1.5 s
Observed enhancement (fold) of chemiluminescence ([3]; Day 80): 3.5 fold
Observed acceleration of emission kinetics (time to >90% emission) ([3]; Day 80): 1.5 s
Observed enhancement (fold) of chemiluminescence ([4]; Day 1): 3.5 fold
Observed acceleration of emission kinetics (time to >90% emission) ([4]; Day 1): 1.0 s
Observed enhancement (fold) of chemiluminescence ([4]; Day 10): 3.6 fold
Observed acceleration of emission kinetics (time to >90% emission) ([4]; Day 10): 1.0 s
Observed enhancement (fold) of chemiluminescence ([4]; Day 20): 3.7 fold
Observed acceleration of emission kinetics (time to >90% emission) ([4]; Day 20): 1.0 s
Observed enhancement (fold) of chemiluminescence ([4]; Day 40): 3.2 fold
Observed acceleration of emission kinetics (time to >90% emission) ([4]; Day 40): 1.0 s
Observed enhancement (fold) of chemiluminescence ([4]; Day 80): 2.8 fold
Observed acceleration of emission kinetics (time to >90% emission) ([4]; Day 80): 1.0 s
accelerated emission kinetics [4]: 1.0 s
fold of increased light emission compared to CTAC ([4]; day 80): about 80%
effectiveness in enhancing chemiluminescence relative to CTAC ([4]; within at least the first 10 days (Table 1a)): as effective as CTAC

stability in Reagent 1 [2]: quite stable
ability to accelerate light emission after storage [2]: did not diminish
SMILES: CCCCCCCCCCCCCCCC(=O)NCC[N+](C)(C)C [surfactant 1]
Observed enhancement (fold) of chemiluminescence ([1]; Day 1): 4.5 fold
Observed acceleration of emission kinetics (time to >90% emission) ([1]; Day 1): 1.0 s
Observed enhancement (fold) of chemiluminescence ([1]; Day 10): 4.4 fold
Observed acceleration of emission kinetics (time to >90% emission) ([1]; Day 10): 0.5 s
Observed enhancement (fold) of chemiluminescence ([1]; Day 20): 4.7 fold
Observed acceleration of emission kinetics (time to >90% emission) ([1]; Day 20): 0.5 s
Observed enhancement (fold) of chemiluminescence ([1]; Day 40): 3.4 fold
Observed acceleration of emission kinetics (time to >90% emission) ([1]; Day 40): 0.5 s
Observed enhancement (fold) of chemiluminescence ([1]; Day 80): 3.4 fold
Observed acceleration of emission kinetics (time to >90% emission) ([1]; Day 80): 0.5 s
Observed enhancement (fold) of chemiluminescence ([3]; Day 1): 3.8 fold
Observed acceleration of emission kinetics (time to >90% emission) ([3]; Day 1): 2.0 s
Observed enhancement (fold) of chemiluminescence ([3]; Day 10): 3.8 fold
Observed acceleration of emission kinetics (time to >90% emission) ([3]; Day 10): 2.0 s
Observed enhancement (fold) of chemiluminescence ([3]; Day 20): 4.1 fold
Observed acceleration of emission kinetics (time to >90% emission) ([3]; Day 20): 2.0 s
Observed enhancement (fold) of chemiluminescence ([3]; Day 40): 3.2 fold
Observed acceleration of emission kinetics (time to >90% emission) ([3]; Day 40): 2.0 s
Observed enhancement (fold) of chemiluminescence ([3]; Day 80): 3.0 fold
Observed acceleration of emission kinetics (time to >90% emission) ([3]; Day 80): 2.0 s
Observed enhancement (fold) of chemiluminescence ([4]; Day 1): 3.1 fold
Observed acceleration of emission kinetics (time to >90% emission) ([4]; Day 1): 1.0 s
Observed enhancement (fold) of chemiluminescence ([4]; Day 10): 3.1 fold
Observed acceleration of emission kinetics (time to >90% emission) ([4]; Day 10): 1.0 s
Observed enhancement (fold) of chemiluminescence ([4]; Day 20): 3.4 fold
Observed acceleration of emission kinetics (time to >90% emission) ([4]; Day 20): 1.0 s
Observed enhancement (fold) of chemiluminescence ([4]; Day 40): 2.6 fold
Observed acceleration of emission kinetics (time to >90% emission) ([4]; Day 40): 1.0 s
Observed enhancement (fold) of chemiluminescence ([4]; Day 80): 2.6 fold
Observed acceleration of emission kinetics (time to >90% emission) ([4]; Day 80): 1.0 s
accelerated emission kinetics [4]: 1.0 s
fold of increased light emission compared to CTAC ([4]; day 1): about 89%
fold of increased light emission compared to CTAC ([4]; day 80): ~74%

SMILES: CCCCCCCCCCCCCCCC[N+](C)(C)C.[Cl-] [CTAC, cetyltrimethylammonium chloride, reference compound]
Observed enhancement (fold) of chemiluminescence ([1]; Day 1): 5.3 fold
Observed acceleration of emission kinetics (time to >90% emission) ([1]; Day 1): 1.0 s
Observed enhancement (fold) of chemiluminescence ([1]; Day 10): 5.2 fold
Observed acceleration of emission kinetics (time to >90% emission) ([1]; Day 10): 1.0 s
Observed enhancement (fold) of chemiluminescence ([1]; Day 20): 5.5 fold
Observed acceleration of emission kinetics (time to >90% emission) ([1]; Day 20): 1.0 s
Observed enhancement (fold) of chemiluminescence ([1]; Day 40): 4.2 fold
Observed acceleration of emission kinetics (time to >90% emission) ([1]; Day 40): 1.0 s
Observed enhancement (fold) of chemiluminescence ([1]; Day 80): 4.6 fold
Observed acceleration of emission kinetics (time to >90% emission) ([1]; Day 80): 1.0 s
Observed enhancement (fold) of chemiluminescence ([3]; Day 1): 4.1 fold
Observed acceleration of emission kinetics (time to >90% emission) ([3]; Day 1): 2.0 s
Observed enhancement (fold) of chemiluminescence ([3]; Day 10): 4.3 fold
Observed acceleration of emission kinetics (time to >90% emission) ([3]; Day 10): 2.0 s
Observed enhancement (fold) of chemiluminescence ([3]; Day 20): 4.6 fold
Observed acceleration of emission kinetics (time to >90% emission) ([3]; Day 20): 2.5 s
Observed enhancement (fold) of chemiluminescence ([3]; Day 40): 3.9 fold
Observed acceleration of emission kinetics (time to >90% emission) ([3]; Day 40): 2.5 s
Observed enhancement (fold) of chemiluminescence ([3]; Day 80): 4.0 fold
Observed acceleration of emission kinetics (time to >90% emission) ([3]; Day 80): 2.5 s
increase of overall light output ([5]; acridinium ester labels and their conjugates): 3-4 fold
emission time of the labels ([5]; compressed from approximately 60 s, 7 mM CTAC in 0.25 M sodium hydroxide): < 5 s
Observed enhancement (fold) of chemiluminescence ([4]; Day 1): 3.5 fold
Observed acceleration of emission kinetics (time to >90% emission) ([4]; Day 1): 1.5 s
Observed enhancement (fold) of chemiluminescence ([4]; Day 10): 3.6 fold
Observed acceleration of emission kinetics (time to >90% emission) ([4]; Day 10): 1.5 s
Observed enhancement (fold) of chemiluminescence ([4]; Day 20): 4.0 fold
Observed acceleration of emission kinetics (time to >90% emission) ([4]; Day 20): 1.5 s
Observed enhancement (fold) of chemiluminescence ([4]; Day 40): 3.4 fold
Observed acceleration of emission kinetics (time to >90% emission) ([4]; Day 40): 1.5 s
Observed enhancement (fold) of chemiluminescence ([4]; Day 80): 3.5 fold
Observed acceleration of emission kinetics (time to >90% emission) ([4]; Day 80): 1.5 s
accelerated emission kinetics [4]: 1.5 s
